Measured values: ChEMBL document CHEMBL2202954, “The effect of PLC-γ2 inhibitors on the growth of human tumour cells” (2012)

Key:
Type in all cases: functional
[1] = Cytotoxicity against human NCI-ADR-RES cells assessed as cellular growth at 10 uM by SRB assay
T47D = assay: Cytotoxicity against human T47D cells assessed as cellular growth at 10 uM by SRB assay
A498 = assay: Cytotoxicity against human A498 cells assessed as cellular growth at 10 uM by SRB assay
MDA-MB-231 = assay: Cytotoxicity against human MDA-MB-231 cells assessed as cellular growth at 10 uM by SRB assay
KM12 = assay: Cytotoxicity against human KM12 cells assessed as cellular growth at 10 uM by SRB assay
NCI-H460 = assay: Cytotoxicity against human NCI-H460 cells assessed as cellular growth at 10 uM by SRB assay
UACC-62 = assay: Cytotoxicity against human UACC62 cells assessed as cellular growth at 10 uM by SRB assay
SK-MEL-28 = assay: Cytotoxicity against human SK-MEL-28 cells assessed as cellular growth at 10 uM by SRB assay
SNB-19 = assay: Cytotoxicity against human SNB19 cells assessed as cellular growth at 10 uM by SRB assay
MDA-MB-468 = assay: Cytotoxicity against human MDA-MB-468 cells assessed as cellular growth at 10 uM by SRB assay
HCT-116 = assay: Cytotoxicity against human HCT116 cells assessed as cellular growth at 10 uM by SRB assay
HOP-62 = assay: Cytotoxicity against human HOP62 cells assessed as cellular growth at 10 uM by SRB assay
IGROV-1 = assay: Cytotoxicity against human IGROV1 cells assessed as cellular growth at 10 uM by SRB assay
SF-268 = assay: Cytotoxicity against human SF268 cells assessed as cellular growth at 10 uM by SRB assay
SN12C = assay: Cytotoxicity against human SN12C cells assessed as cellular growth at 10 uM by SRB assay
Malme-3M = assay: Cytotoxicity against human MALME-3M cells assessed as cellular growth at 10 uM by SRB assay
HCT-15 = assay: Cytotoxicity against human HCT15 cells assessed as cellular growth at 10 uM by SRB assay
NCI-H522 = assay: Cytotoxicity against human NCI-H522 cells assessed as cellular growth at 10 uM by SRB assay
BT-549 = assay: Cytotoxicity against human BT549 cells assessed as cellular growth at 10 uM by SRB assay
MDA-MB-435 = assay: Cytotoxicity against human MDA-MB-435 cells assessed as cellular growth at 10 uM by SRB assay
SF-295 = assay: Cytotoxicity against human SF295 cells assessed as cellular growth at 10 uM by SRB assay
SNB-75 = assay: Cytotoxicity against human SNB75 cells assessed as cellular growth at 10 uM by SRB assay
DU-145 = assay: Cytotoxicity against human DU145 cells assessed as cellular growth at 10 uM by SRB assay
SK-OV-3 = assay: Cytotoxicity against human SKOV3 cells assessed as cellular growth at 10 uM by SRB assay
SK-MEL-5 = assay: Cytotoxicity against human SK-MEL-5 cells assessed as cellular growth at 10 uM by SRB assay
ACHN = assay: Cytotoxicity against human ACHN cells assessed as cellular growth at 10 uM by SRB assay
Hs-578T = assay: Cytotoxicity against human Hs578T cells assessed as cellular growth at 10 uM by SRB assay
U-251 = assay: Cytotoxicity against human U251 cells assessed as cellular growth at 10 uM by SRB assay
HT-29 = assay: Cytotoxicity against human HT-29 cells assessed as cellular growth at 10 uM by SRB assay
HL-60(TB) = assay: Cytotoxicity against human HL-60(TB) cells assessed as cellular growth at 10 uM by SRB assay
CCRF-CEM = assay: Cytotoxicity against human CCRF-CEM cells assessed as cellular growth at 10 uM by SRB assay
A549 = assay: Cytotoxicity against human A549 cells assessed as cellular growth at 10 uM by SRB assay
K562 = assay: Cytotoxicity against human K562 cells assessed as cellular growth at 10 uM by SRB assay
NCI-H226 = assay: Cytotoxicity against human NCI-H226 cells assessed as cellular growth at 10 uM by SRB assay
OVCAR-8 = assay: Cytotoxicity against human OVCAR8 cells assessed as cellular growth at 10 uM by SRB assay
RPMI-8226 = assay: Cytotoxicity against human RPMI8226 cells assessed as cellular growth at 10 uM by SRB assay
CAKI-1 = assay: Cytotoxicity against human Caki1 cells assessed as cellular growth at 10 uM by SRB assay
COLO 205 = assay: Cytotoxicity against human COLO205 cells assessed as cellular growth at 10 uM by SRB assay
PC-3 = assay: Cytotoxicity against human PC3 cells assessed as cellular growth at 10 uM by SRB assay
TK-10 = assay: Cytotoxicity against human TK10 cells assessed as cellular growth at 10 uM by SRB assay
LOX IMVI = assay: Cytotoxicity against human LOXIMVI cells assessed as cellular growth at 10 uM by SRB assay
SW-620 = assay: Cytotoxicity against human SW620 cells assessed as cellular growth at 10 uM by SRB assay
MCF7 = assay: Cytotoxicity against human MCF7 cells assessed as cellular growth at 10 uM by SRB assay
UACC-257 = assay: Cytotoxicity against human UACC257 cells assessed as cellular growth at 10 uM by SRB assay
RXF 393 = assay: Cytotoxicity against human RXF393 cells assessed as cellular growth at 10 uM by SRB assay
OVCAR-3 = assay: Cytotoxicity against human OVCAR3 cells assessed as cellular growth at 10 uM by SRB assay
M14 = assay: Cytotoxicity against human M14 cells assessed as cellular growth at 10 uM by SRB assay
786-0 = assay: Cytotoxicity against human 786-0 cells assessed as cellular growth at 10 uM by SRB assay
SK-MEL-2 = assay: Cytotoxicity against human SK-MEL-2 cells assessed as cellular growth at 10 uM by SRB assay
UO-31 = assay: Cytotoxicity against human UO31 cells assessed as cellular growth at 10 uM by SRB assay
NCI-H23 = assay: Cytotoxicity against human NCI-H23 cells assessed as cellular growth at 10 uM by SRB assay
EKVX = assay: Cytotoxicity against human EKVX cells assessed as cellular growth at 10 uM by SRB assay
OVCAR-4 = assay: Cytotoxicity against human OVCAR4 cells assessed as cellular growth at 10 uM by SRB assay
OVCAR-5 = assay: Cytotoxicity against human OVCAR5 cells assessed as cellular growth at 10 uM by SRB assay
SF-539 = assay: Cytotoxicity against human SF539 cells assessed as cellular growth at 10 uM by SRB assay
NCI-H322M = assay: Cytotoxicity against human NCI-H322M cells assessed as cellular growth at 10 uM by SRB assay
HCC 2998 = assay: Cytotoxicity against human HCC2998 cells assessed as cellular growth at 10 uM by SRB assay
SR = assay: Cytotoxicity against human SR cells assessed as cellular growth at 10 uM by SRB assay
MOLT-4 = assay: Cytotoxicity against human MOLT4 cells assessed as cellular growth at 10 uM by SRB assay
HOP-92 = assay: Cytotoxicity against human HOP92 cells assessed as cellular growth at 10 uM by SRB assay

Cc1ccc(C(=O)/C=C2/Nc3ccc(C)cc3OC2=O)cc1
Activity [1]: 108.28% | Activity (T47D): 104.44% | Activity (A498): 86.34% | Activity (MDA-MB-231): 88.3% | Activity (KM12): 106.74% | Activity (NCI-H460): 117.71% | Activity (UACC-62): 96.95% | Activity (SK-MEL-28): 118.66% | Activity (SNB-19): 104.52% | Activity (MDA-MB-468): 112.98% | Activity (HCT-116): 110.04% | Activity (HOP-62): 115.04% | Activity (IGROV-1): 115.36% | Activity (SF-268): 110.95% | Activity (SN12C): 96.84% | Activity (Malme-3M): 114.26% | Activity (HCT-15): 110.94% | Activity (NCI-H522): 100.47% | Activity (BT-549): 108.86% | Activity (MDA-MB-435): 106.99% | Activity (SF-295): 132.37% | Activity (SNB-75): 72.48% | Activity (DU-145): 118.59% | Activity (SK-OV-3): 115.37% | Activity (SK-MEL-5): 100.21% | Activity (ACHN): 104.27% | Activity (Hs-578T): 122.96% | Activity (U-251): 108.93% | Activity (HT-29): 106.8% | Activity (HL-60(TB)): 82.69% | Activity (CCRF-CEM): 77.12% | Activity (A549): 105.68% | Activity (K562): 95.07% | Activity (NCI-H226): 108.24% | Activity (OVCAR-8): 102.51% | Activity (RPMI-8226): 56.86% | Activity (CAKI-1): 96.63% | Activity (COLO 205): 120.49% | Activity (PC-3): 101.93% | Activity (TK-10): 135.06% | Activity (LOX IMVI): 104.53% | Activity (SW-620): 120.18% | Activity (MCF7): 96.32% | Activity (UACC-257): 103.75% | Activity (RXF 393): 112.41% | Activity (OVCAR-3): 116.56% | Activity (M14): 106.88% | Activity (786-0): 111.25% | Activity (SK-MEL-2): 123.75% | Activity (UO-31): 94.47% | Activity (NCI-H23): 99.9% | Activity (EKVX): 92.88% | Activity (OVCAR-4): 96.74% | Activity (OVCAR-5): 120.4% | Activity (SF-539): 108.44% | Activity (NCI-H322M): 106.47% | Activity (HCC 2998): 102.74% | Activity (SR): 100.89% | Activity (MOLT-4): 83.44%

CC1(C)CC(=O)c2cc3c(N)c(C(=O)Nc4ccccc4Cl)sc3nc2C1
Activity [1]: 115.33% | Activity (T47D): 99.6% | Activity (A498): 71.33% | Activity (MDA-MB-231): 116.03% | Activity (KM12): 117.4% | Activity (NCI-H460): 113.94% | Activity (UACC-62): 100.17% | Activity (SK-MEL-28): 116.26% | Activity (SNB-19): 106.42% | Activity (MDA-MB-468): 110.28% | Activity (HCT-116): 113.5% | Activity (HOP-62): 116.65% | Activity (IGROV-1): 126.77% | Activity (SF-268): 122.6% | Activity (SN12C): 104.5% | Activity (Malme-3M): 121.48% | Activity (HCT-15): 98.89% | Activity (NCI-H522): 102.8% | Activity (BT-549): 128% | Activity (MDA-MB-435): 105.18% | Activity (SF-295): 96.7% | Activity (SNB-75): 118.5% | Activity (DU-145): 109.85% | Activity (SK-OV-3): 107.93% | Activity (SK-MEL-5): 100.73% | Activity (ACHN): 114.15% | Activity (Hs-578T): 112.91% | Activity (U-251): 102.37% | Activity (HT-29): 105.6% | Activity (CCRF-CEM): 97.05% | Activity (A549): 102.64% | Activity (K562): 96.43% | Activity (NCI-H226): 111.12% | Activity (OVCAR-8): 109.63% | Activity (RPMI-8226): 108.32% | Activity (CAKI-1): 132.4% | Activity (COLO 205): 125.06% | Activity (PC-3): 105.8% | Activity (TK-10): 106.14% | Activity (LOX IMVI): 117.15% | Activity (HOP-92): 103.08% | Activity (SW-620): 108.49% | Activity (MCF7): 111.34% | Activity (UACC-257): 104.02% | Activity (RXF 393): 117.18% | Activity (OVCAR-3): 121.58% | Activity (M14): 118.29% | Activity (786-0): 102.03% | Activity (SK-MEL-2): 111.24% | Activity (UO-31): 117.05% | Activity (NCI-H23): 108.01% | Activity (EKVX): 108.8% | Activity (SF-539): 111.8% | Activity (NCI-H322M): 131.48% | Activity (HCC 2998): 107.92% | Activity (MOLT-4): 104.6%
